Laboratory results: US6338963B1, “Use of carbon monoxide dependent guanylyl cyclase modifiers to stimulate neuritogenesis” (NeoTherapeutics, Inc., priority 1994, dated 2002)
Marks after values point to notes of the source that are not given here.

Experiments:
Swiss Webster mice = assay: T-maze discrimination learning and reversal; format: in vivo
From the text: Subjects were also trained in the same T-maze used for the win-shift model discussed above. As in the win-shift method, subjects were shaped and then given a single reference run in which reward was available in both goal boxes. The subject was only allowed to consume the milk reward in the goal box selected. On the next run, the reward and thus the correct response was in the same goal box selected for the reference run and was not alternated. The subject was required to learn that there was no shift in the goal box for the correct response. The subjects were given 10 trials per day and continued until the subject had at least 8 out of 10 correct responses on two consecutive days. The number of days to reach this criteria of performance was recorded. After the subject reached criteria, the goal box for the correct response was reversed. The number of days taken to reach criteria on reversal was recorded.

C57BL/6 mice = assay: Win-shift test, C57BL/6 mice with age-induced memory deficits; format: in vivo; settings: for subjects performing significantly above chance/total number of subjects: AIT-082 30 mg/kg
Protocol: Twelve-month old male C57BL/6 mice were screened for performance in the win-shift foraging test. Subjects were tested at various inter-trial time intervals. Subjects who could not perform to criteria (>60% correct) at 10 seconds delay were classified as having a severe deficit. Subjects who performed to criteria at 10 seconds but not at 30 seconds were classified as having a moderate degree of deficit and subjects who performed to criteria at 30 seconds but not at 60 seconds were classified as having mild deficit. As in Example 21, subjects in each group were treated with either AIT-082 or PHY to determine the extent to which the working memory trace was prolonged. The results are presented in Table M directly below and graphically represented in FIG. 10.

mice = assay: Exploratory activity in novel large cage; format: in vivo; settings: 30 minutes
Protocol: To measure exploratory behavior, subjects received saline or AIT-082 administration, were placed in a novel large cage (25×48×16 cm, W×L×H), and movement was measured at one-minute intervals for 30 minutes. The large cage (San Diego Instruments, San Diego, Calif.) was equipped with vertical detectors and rearing movements were also recorded.

GDNF = assay: Two-site ELISA of growth factor protein in rat brain and spinal cord: GDNF; format: in vivo, F344 rats
Protocol: Adult female F344 rats were given either AIT-082 (doses: 30 mg/kg/day or a higher dose of 30 mg/ml (˜3,000 mg/kg/day); n=6 rats per group) in their drinking water, or water alone, as a vehicle for control. The duration of the study was seven days, at which time the rats were anesthesized and perfused with ice-cold saline. The brains of the rats were rapidly removed. The brains were placed on a chilled glass plate and dissected into the following regions: basal forebrain, frontal cortex, parietal cortex, cerebellum, spinal cord, and hippocampal formation. Tissues were stored at −70° C. until assayed in a specific two-site ELISA for either NGF, BDNF, NT-3, or GNDF.
The results are shown in FIGS. 45 (BDNF), 46 (NT-3), 47 (GDNF) and 48 (NGF). For the results shown in FIGS. 45-48, animals were given only water (VEH, n=6) or water with AIT-082 at either 30 mg/kg/day (n=6) or 30 mg/ml (n=6) for seven days. The levels of each growth factor were determined in the frontal cortex (F. Cor.), parietal cortex (P.Cor.), hippocampal formation (Hipp.), basal forebrain (B.F.), cerebellum (Cer.), or spinal cord (Cord) using a specific two-site ELISA for each growth factor.
Adult female rats were given AIT-082 (30 mg/kg/day) in their drinking water or drinking water alone (n=6 for each group) for seven days prior to receiving a bilateral fimbria fornix transection (FFT).
The results are shown in FIGS. 49 (BDNF), 50 (NT-3), 51 (GDNF) and 52 (NGF). […] Levels of the growth factor were determined in frontal cortex (F.Cor.), parietal cortex (P.Cor.), hippocampal formation (Hipp.), basal forebrain (B.F.), cerebellum (Cer.), or spinal cord (Cord) using a specific two-site ELISA for each growth factor. […]
Results are shown in FIGS. 53 (BDNF), 54 (NT3), 55 (GDNF), and 56 (NGF). […] Levels of each growth factor were determined in frontal cortex (F.Cor.), parietal cortex (P. Cor.), hippocampal formation (Hipp.), basal forebrain (B.F.), cerebellum (Cer.) or spinal cord (Cord) using a specific two-site ELISA.

CNTF mRNA = assay: RT-PCR of growth factor mRNA after T8 spinal cord hemisection: CNTF; format: in vivo, Wistar rats
rat striatum = assay: MRI of rat striatum injected with NMDA; format: in vivo
Protocol: T-2 weighted MRI photos of transverse brain 3-mm thick slices were performed (TR/TE=7400/115 ms; matrix 483×1024; FLV 250). Magnetic resonance images were acquired using 1.5 T scanner (Vision, Siemens-Erlangen). […] All animals survived the surgery and continued to receive treatment for an additional three days, at which time they were sacrificed and tissues were collected as described above.

CNTF = assay: Summary of effects on growth factor mRNA and protein (Table R): CNTF; design: key: ± = mRNA; + = protein; nt = not tested
From the text: The constellation of effects of AIT-082 on production of mRNA encoding growth factors and on production of growth factor proteins is shown in Table R. The results summarized in […] show both transcriptional and translational effects on growth factors that are in the categories of neurotrophins, pleiotrophins, members of the S100 family of EF hand calcium binding proteins, and members of the TGFβ superfamily. As indicated, effects have been shown at both the mRNA (transcriptional) and protein (translational) levels.

O=C(CCn1cnc2c(=O)[nH]cnc21)Nc1ccc(C(=O)O)cc1 [AIT-082, N-4-carboxyphenyl-3-(6-oxohydropurin-9-yl)propanamide]
T-maze Learning, Learning (Swiss Webster mice; AIT-082 0.5 mg/kg): 3.0 days to reach criteria
T-maze Learning, Reversal (Swiss Webster mice; AIT-082 0.5 mg/kg): 3.78 days to reach criteria
T-maze Learning, Learning (Swiss Webster mice; AIT-082 30.0 mg/kg): 3.3 days to reach criteria
T-maze Learning, Reversal (Swiss Webster mice; AIT-082 30.0 mg/kg): 3.5 days to reach criteria
subjects performing significantly above chance/total number of subjects (C57BL/6 mice; Mild deficit, interval 60 sec): 4/4*
subjects performing significantly above chance/total number of subjects (C57BL/6 mice; Mild deficit, interval 90 sec): 2/4*
subjects performing significantly above chance/total number of subjects (C57BL/6 mice; Moderate deficit, interval 10 sec): 6/6*
subjects performing significantly above chance/total number of subjects (C57BL/6 mice; Moderate deficit, interval 30 sec): 4/6
subjects performing significantly above chance/total number of subjects (C57BL/6 mice; Moderate deficit, interval 60 sec): 1/6
subjects performing significantly above chance/total number of subjects (C57BL/6 mice; Moderate deficit, interval 90 sec): 0/6
subjects performing significantly above chance/total number of subjects (C57BL/6 mice; Severe deficit, interval <10 sec): 0/6
duration of the memory trace after treatment (C57BL/6 mice; mild deficit group, prolonged from 30): 90 s
duration of the memory trace after treatment (C57BL/6 mice; moderate deficit group, prolonged from 10): 30 s
exploratory activity (mice): No effects were noted
GDNF protein levels (GDNF; FFT-lesioned rats, 30 mg/kg/day, basal forebrain): increased GDNF levels
GDNF protein levels (GDNF; aged rats, 30 mg/kg/day 30 days, parietal and frontal cortex): restored GDNF protein levels to those of young animals
GDNF protein levels (GDNF; intact adult rats, 3000 mg/kg/day, basal forebrain and spinal cord): increased GDNF levels
CNTF mRNA level (CNTF mRNA; at the level of the lesion): increased mean CNTF mRNA levels over control animals, although not statistically so
CNTF mRNA level (CNTF mRNA; caudal to lesion, 7 days): no significant effects
CNTF mRNA level (CNTF mRNA; rostral to lesion, 3 days, sham-operated over lesion animals): significantly increased
CNTF mRNA level (CNTF mRNA; rostral to lesion, 7 days, control animals, over water alone (p=0.017)): robust increase
CNTF mRNA level (CNTF mRNA; rostral to lesion, 7 days, relative to lesion alone (p=0.056)): increased CNTF mRNA levels
MRI brightness of the lesion (rat striatum; AIT locally co-injected with NMDA): disappeared
MRI brightness of the lesion (rat striatum; systemic (intraperitoneal) AIT-082 60 mg/kg): significantly reduced
CNTF, effect on mRNA/protein production (CNTF; Lesioned Spinal Cord): ±
CNTF, effect on mRNA/protein production (CNTF; Normal Spinal Cord): ±
